Tests used:
[1] = target: T1, NMDA (N-methyl-D-aspartate) receptor (Rattus norvegicus, UniProt P35439); experiment: Binding of ^3 H-5,7-dichlorokynurenic acid (displacement on rat cerebral membranes); conditions: rat cerebra membranes, pH 7.4, 30 minutes on ice
T1 construct: freshly removed rat cerebra were homogenized; from tissue; host or cells: rat cerebrum, washed membranes

AMPA receptor = experiment: Binding of ^3 H-AMPA (displacement on rat cerebral membranes); conditions: rat cerebra membranes, pH 7.1, 60 minutes on ice
Description: For this, the membrane material was treated in the presence of the compounds according to the invention with the radio-labeled substances ^3 H-2-amino-3-hydroxy-5-methyl-4-isoxazolepropionic acid (^3 H-AMPA) and ^3 H-5,7-dichlorocyanuric [sic] acid, which bind to specific receptors (AMPA and NMDA (N-methyl-D-aspartate) receptors respectively). Subsequently the radioactivity in the treated membranes was measured by scintillation counting. It was possible from the bound radioactivity to determine the amounts of bound 3H AMPa and ^3 H-5,7-dichlorokyanurenicacid, or the amounts of each of these radiolabeled substances displaced.
1. Binding of ^3 H-2-amino-3-hydroxy-5-methyl-4-isoxazolepropionic acid (^3 H-AMPA).
To prepare the membrane material, freshly removed rat cerebra were homogenized together with about 15 times the volume of a buffer solution A composed of 30 mM α,α,α-tris(hydroxymethyl)methylamine hydrochloride (TRIS-HCl) and 0.5 mM ethylenediaminetetraacetic acid (EDTA), pH 7.4, using an Ultra-TURRAX. The suspension was centrifuged at 48,000 g for 20 min. After removal of the supernatant liquid, the protein-containing membrane material present in the pellet was washed three times by suspension in buffer solution A and subsequent centrifugation at 48,000 g for 20 minutes each time. The membrane material was then suspended in 15 times the volume of buffer solution A and incubated at 37° C. for 30 minutes. Subsequently the protein material was washed twice by centrifugation and suspension and was stored at -70° C. until used.
For the binding test, the protein material was thawed at 37° C. and washed twice by centrifugation at 48,000 g (20 min) and subsequent suspension in a buffer solution B composed of 50 mM TRIS-HCl, 0.1M potassium thiocyanate and 2.5 mM calcium chloride, pH 7.1. […] The filtrate [sic] was subsequently washed with 5 ml of cold buffer solution B in order to separate bound and free ^3 H-AMPA from one another. After measurement of the radioactivity of the bound ^3 H-AMPA in the membrane material by scintillation counting, the KI was determined by regression analysis of the displacement plots.

| SMILES | Ki [1] [µM] | Ki (AMPA receptor) [µM] |
| --- | --- | --- |
| O=C(O)c1nc2c3c([nH]c(=O)n2n1)CCSC3 [Example 18] | 0.8 |  |
| O=C(O)c1nc2c3c([nH]c(=O)n2n1)CCC3 [Example 6] | 1.6 |  |
| CCOC(=O)c1nc2c3c([nH]c(=O)n2n1)CC1CCCCC1C3 (stereo not shown) [Example 21] | 2.6 | 1.7 |
| O=C(NCc1ccccc1)c1nc2c3c([nH]c(=O)n2n1)CCCC3 [Example 3, 7,8,9,10-Tetrahydro-1,2,4-triazolo[1,5-c]quinazolin-5-one-2-carboxylic acid N-benzylolylamide] | 1.2 | 1.5 |
| O=C(NCc1ccc([N+](=O)[O-])cc1)c1nc2c3c([nH]c(=O)n2n1)CCCC3 [Example 15] | 2 |  |
| O=C(O)CCc1nc2c3c([nH]c(=O)n2n1)-c1ccccc1CC3 [Example 11] | 0.1 | 1 |
| O=C(NCc1ccc(Cl)c(Cl)c1)c1nc2c3c([nH]c(=O)n2n1)CCCC3 [Example 12] | 1.6 |  |

Further molecules by falling Ki [1], results first:

| Ki [1] [µM] | Ki (AMPA receptor) [µM] | SMILES |
| --- | --- | --- |
| 0.65 |  | CCOC(=O)c1nc2c3c([nH]c(=O)n2n1)-c1ccccc1CC3 [Example 9] |
| 0.4 |  | CCOC(=O)c1nc2c3c([nH]c(=O)n2n1)CCCCC3 [Example 7] |
| 0.3 | 1.7 | O=C(O)c1nc2c3c([nH]c(=O)n2n1)-c1ccccc1CC3 [Example 10] |
| 0.2 |  | O=C(O)c1nc2c3c([nH]c(=O)n2n1)CCCCC3 [Example 8] |
| 0.2 |  | O=C(O)c1nc2c3c(nc(=O)n2[nH]1)CCCC3 [Example 2, 7,8,9,10-Tetrahydro-1,2,4-triazolo[1,5-c]quinazolin-5-one-2-carboxylic acid] |

Source: US5654310A, “Triazolopyrimidones their preparation and use” (BASF Aktiengesellschaft, priority 1992, dated 1997)
